# Laboratory results taken from PMC11062894, “Protein-based bandpass filters for controlling cellular signaling with chemical inputs” (Nature Chemical Biology, 2023).
# Values joined by “and” are separate entries in the source; they are usually repeats but may differ in a detail not shown here. Equal values may be shown once.
# Tested on: GEMS receptors with CBPA11 (BclXL–LD3 and BclXLhigh variants), STAT3-driven SEAP in HEK293T cells
# Assay: GEMS SEAP reporter assay, CBPA11 (BclXLhigh, LD3-v and BclXL-v variants) with A-1155463
# Assay type: cell-based
# Parameters: key to Raw data (SEAP) / SEAP, replicate values / Raw data of Figure 5b / Raw data Figure 5e / Raw data of Independent repeat of CBPA11-v1 vs CBPA11-v1-LD3v3 / Raw data of Independent repeat of CBPA11-v3 vs CBPA11-v3-LD3v3 / Raw data of Figure 5b, CBPA11-v1-LD3v3 (SEAP reporter raw value, single replicate) / Raw data of Figure 5b, CBPA11-v1 (SEAP reporter raw value, single replicate): SEAP activity in U/L in culture supernatant
# Source text: To rationally design a CBP responding to a chemical input, we used BclXL as the druglow receptor, LD3 as the designed binder and a designed BclXL variant as the drughigh receptor (referred to as BclXLhigh) to construct a CBP responsive to BclXL inhibitors (Fig. 4a). To design BclXLhigh, we used a multistate design computational protocol described elsewhere[26] […] Thus, BclXLhigh-v(1–3) were chosen as the functional drughigh receptors, resulting in three A-1155463-controlled CBPs (referred to as CBPA11-v(1–3)) (Fig. 4c–e).
# HEK293T cells were seeded in a 96-well plate 24 h before transfection. The transfection mix in each well consisted of 3 ng of constitutive human CMV promoter driven mammalian STAT3 expression vector (PhCMV-STAT3-pA), 30 ng of STAT3-induced reporter expression (OStat3-PhCMVmin-SEAP-pA) and 50 ng of expression vectors for each GEMS receptor chain (PSV40-IgK-(drughigh receptor)-EpoRm-IL-6RBm-pA and PSV40-IgK-(druglow receptor-GGGGSX3-LD3)-EpoRm-IL-6RBm-pA). For the specific drughigh receptor and druglow receptor used in the different cellular assays, they are indicated as wild type or with mutations. Then, plasmid DNA was mixed with 50 μl opti-MEM (Thermo Fisher) and 600 ng of polyethyleneimine (Polysciences, catalog no. 24765-1). For drug treatment experiments, drugs were added 12 h post-transfection and incubated with cells for 24 h before the SEAP reporter detection assay.
# SEAP activity (U l^−1) in cell culture supernatants was quantified by kinetic measurements at 405 nm (1 minute per measurement for 30 cycles) of absorbance increase due to phosphatase-mediated hydrolysis of para-nitrophenyl phosphate (pNPP).
# Binding affinities of SPR drug competition assays were calculated using three-parameter nonlinear regression in GraphPad Prism (v.8.3.0). Representative data of cell assays are presented as individual values and mean values (bars). n = 3 refers to biological replicates. All IC50 or EC50 values of cell assays reported were calculated using four-parameter nonlinear regression ± s.d. Bandpass features of cutoff concentrations and Bandwidth90% were estimated based on the curve fitted using bell-shaped curve nonlinear regression in GraphPad Prism (v.8.3.0). […]
# Supplementary Figure 4: Design, screening and validation of BclXLhigh variants. a) Screening of BclXLhigh variants in the GEMS platform. […]
# Dissociation constant measurement of BclXLhigh-v(1-3) and LD3. Equilibrium curves are fitted using […]
# BclXLhigh-v1 (purple), BclXLhigh-v2 (blue), […]
# a) Bcl2high-based bandpass filter designs were developed and to respond to different concentrations of […]
# corresponding inhibitor. c) Screening of Bcl2high-based bandpass filter variants in the GEMS platform.
# The designed binder LD3 was fused to the druglow-receptor (PSV40-IgK-Bcl2-LD3-EpoRm-IL-6RBm-pA) in one EpoR chain and Bcl2high variants with the insensitive Bcl2 (iBcl2) as control in the other EpoR chain (PSV40-IgK-Bcl2high-EpoRm-IL-6RBm-pA). HEK293T cells were transfected with indicated […]
# the mean of six biological replicates ± s.d., overlaid with a scatter dot plot of the original data points.
# (1 picture or pasted object on this page, not shown here)
# Supplementary Figure 6: Binding affinities and drug resistances of Bcl2high-v(2,4,5) assessed by […]
# a) Measurement of dissociation constants for Bcl2high-v(2,4,5) and LD3 interactions. Equilibrium curves […]
# Bcl2high-v(2,4,5) measured by SPR. 5 μM of Bcl2 or indicated variants were mixed with 10 μM of […]
# Bcl2high-v2 (red), Bcl2high-v4
# Supplementary Figure 7: Screening of LD3 variants in CBPA11-v(1-3) and raw data of CBPA11-v(1,3) with LD3-v3 variant. a-c) Screening of LD3 and LD3-v(1-3) variants in complex with BclXL for more sensitive CBPA11-v1 (a), CBPA11-v2 (b), CBPA11-v3 (c) in the GEMS platform. The LD3 variants replaced the role of LD3 (PSV40-IgK-BclXL-LD3-v(1-3)-EpoRm-IL-6RBm-pA) in one EpoR chain and BclXLhigh-v(1-3) in the other EpoR chain (PSV40-IgK-BclXLhigh-V(1-3)-EpoRm-IL-6RBm-pA). HEK293T cells were transfected with […]
# [1] = CBPA11-v3-BclXLv2, A-1155463 10000 nM
# [2] = CBPA11-v3-LD3v3, A-1155463 1 nM
# [3] = CBPA11-v3-LD3v3, A-1155463 3.18 nM
# [4] = CBPA11-v3-LD3v3, A-1155463 10 nM
# [5] = CBPA11-v3-LD3v3, A-1155463 31.8 nM
# [6] = CBPA11-v3-LD3v3, A-1155463 100 nM
# [7] = CBPA11-v3-LD3v3, A-1155463 318 nM
# [8] = CBPA11-v3-LD3v3, A-1155463 1000 nM
# [9] = CBPA11-v3-LD3v3, A-1155463 3180 nM
compound,measurement,setting,value
CN(C)CC#Cc1ccc(OCCCc2sc(N3CCc4cccc(C(=O)Nc5nc6ccccc6s5)c4C3)nc2C(=O)O)c(F)c1 [A-1155463],Normalized data Figure 5e,"CBPA11-v3, A-1155463 1000 nM",81.2661 and 84.4942 and 85.1885
same,Normalized data of Figure 5b,"CBPA11-v3, A-1155463 1000 nM",77.1257 and 88.7382 and 83.2133
same,Raw data of Figure 5b,"CBPA11-v3, A-1155463 1000 nM",414.242 and 467.209 and 437.572
same,Raw data of Independent repeat of CBPA11-v3 vs CBPA11-v3-LD3v3,"CBPA11-v3, A-1155463 1000 nM",429.812 and 444.52 and 449.13
same,Raw data of Independent repeat of CBPA11-v3 vs CBPA11-v3-LD3v3,"CBPA11-v3, A-1155463 3160 nM",188.374 and 250.833 and 293.834
same,Normalized data Figure 5e,"CBPA11-v3, A-1155463 3180 nM",35.6165 and 47.6783 and 55.7329
same,Normalized data of Figure 5b,"CBPA11-v3, A-1155463 3180 nM",69.9852 and 73.5971 and 71.687
same,Raw data Figure 5e,"CBPA11-v3, A-1155463 3180 nM",250.833 and 293.834
same,Raw data of Figure 5b,"CBPA11-v3, A-1155463 3180 nM",375.891 and 387.491 and 376.961
same,Normalized data of Figure 5b,"CBPA11-v3, A-1155463 10000 nM",33.3676 and 35.0593 and 32.1412
same,Raw data Figure 5e,"CBPA11-v3, A-1155463 10000 nM",69.4522 and 75.5808 and 84.1281
same,Raw data of Figure 5b,"CBPA11-v3, A-1155463 10000 nM",179.218 and 184.588 and 169.013
same,Normalized data Figure 5e,"CBPA11-v3-BclXLv2, A-1155463 1 nM",21.2301 and 20.9054 and 25.1683
same,Normalized data Figure 5e,"CBPA11-v3-BclXLv2, A-1155463 3.18 nM",36.7849 and 34.3141 and 39.7967
same,Normalized data Figure 5e,"CBPA11-v3-BclXLv2, A-1155463 10 nM",81.6336 and 75.0518 and 82.9089
same,Normalized data Figure 5e,"CBPA11-v3-BclXLv2, A-1155463 31.8 nM",90.6446 and 90.5045 and 89.528
same,Normalized data Figure 5e,"CBPA11-v3-BclXLv2, A-1155463 100 nM",100
same,Normalized data Figure 5e,"CBPA11-v3-BclXLv2, A-1155463 318 nM",94.0748 and 83.4986 and 97.6461
same,Normalized data Figure 5e,"CBPA11-v3-BclXLv2, A-1155463 1000 nM",82.1634 and 70.2925 and 84.8015
same,Normalized data Figure 5e,"CBPA11-v3-BclXLv2, A-1155463 3180 nM",56.5379 and 50.558 and 54.1989
same,Normalized data Figure 5e,[1],20.2076 and 19.0615 and 22.8054
same,Raw data Figure 5e,[1],80.3813 and 74.5359 and 94.7265
same,Raw data of Independent repeat of CBPA11-v3 vs CBPA11-v3-LD3v3,"CBPA11-v3-LD3v3, A-1155463 0.01 nM",22.6826 and 23.3953 and 23.1684
same,Normalized data of Figure 5b,[2],18.3263 and 15.7809 and 17.6916
same,Raw data of Figure 5b,[2],15.5654 and 14.7861 and 18.9282
same,Raw data of Independent repeat of CBPA11-v3 vs CBPA11-v3-LD3v3,[2],39.675 and 38.1934 and 39.412
same,Raw data of Independent repeat of CBPA11-v3 vs CBPA11-v3-LD3v3,"CBPA11-v3-LD3v3, A-1155463 3.16 nM",41.6393 and 41.4109 and 44.6799
same,Normalized data of Figure 5b,[3],21.7199 and 21.0211 and 18.3728
same,Raw data of Figure 5b,[3],18.4478 and 19.6959 and 19.6571
same,Normalized data of Figure 5b,[4],42.8939 and 42.6676 and 37.1804
same,Raw data of Figure 5b,[4],36.4319 and 39.9778 and 39.7793
same,Raw data of Independent repeat of CBPA11-v3 vs CBPA11-v3-LD3v3,[4],121.488 and 115.434 and 117.733
same,Raw data of Independent repeat of CBPA11-v3 vs CBPA11-v3-LD3v3,"CBPA11-v3-LD3v3, A-1155463 31.6 nM",175.057 and 186.814 and 198.727
same,Normalized data of Figure 5b,[5],100 and 85.1231 and 93.5368
same,Raw data of Figure 5b,[5],84.9348 and 79.7569 and 100.075
same,Normalized data of Figure 5b,[6],98.4645 and 100
same,Raw data of Figure 5b,[6],83.6306
same,Raw data of Independent repeat of CBPA11-v3 vs CBPA11-v3-LD3v3,[6],212.624 and 240.137 and 273.777
same,Raw data of Independent repeat of CBPA11-v3 vs CBPA11-v3-LD3v3,"CBPA11-v3-LD3v3, A-1155463 316 nM",197.006 and 197.385 and 185.58
same,Normalized data of Figure 5b,[7],66.0363 and 74.9346 and 74.5506
same,Raw data of Figure 5b,[7],56.0878 and 70.2108 and 79.7618
same,Normalized data of Figure 5b,[8],44.7107 and 39.495 and 38.775
same,Raw data of Figure 5b,[8],37.975 and 37.0053 and 41.4854
same,Raw data of Independent repeat of CBPA11-v3 vs CBPA11-v3-LD3v3,[8],89.9783 and 83.2851 and 69.3694
same,Raw data of Independent repeat of CBPA11-v3 vs CBPA11-v3-LD3v3,"CBPA11-v3-LD3v3, A-1155463 3160 nM",42.2434 and 33.2038 and 38.7983
same,Normalized data of Figure 5b,[9],16.4914 and 15.345 and 15.1706
same,Raw data of Figure 5b,[9],14.007 and 14.3777 and 16.2311
